Laboratory results reported in PMC7848024, “Synthetic Cationic Autoantigen Mimics Glatiramer Acetate Persistence at the Site of Injection and Is Efficacious Against Experimental Autoimmune Encephalomyelitis” (Frontiers in Immunology, 2021).
“Also recorded” adds a separate entry of the source.

How the values were obtained:
[1] = Subcutaneous injection simulation (Scissor): aggregation and release; type: physicochemical; conditions: for formation of visible aggregates in HA: 1 ml of 20 mg/ml injected into 10 mg/ml HA (1.5–1.8 MDa), Scissor cartridge, visual observation
Protocol: The subcutaneous injection simulation was performed using the method previously described ([15]). 1 ml of 20 mg/ml K-PLP in 40 mg/ml mannitol solution was injected into Scissor cartridge containing 10 mg/ml 1.5–1.8 MDa hyaluronic acid (HA). Time points were collected over 3 days and concentration of K-PLP released into the chamber buffer was determined using a bicinchoninic acid assay (Micro BCA protein assay kit, Thermo Scientific, Waltham, MA) by constructing a calibration curve with K-PLP concentrations of 2, 5, 10, 20, 30, and 40 µg/ml. The concentration values were adjusted to account for K-PLP that was taken out during sampling and then converted to percentage of K-PLP released before plotted as a function of time.

[2] = Dynamic light scattering particle sizing; type: physicochemical
Protocol: Raman and dynamic light scattering were performed with a Malvern Helix (Malvern Instruments, Malvern, UK). 20 μl of K-PLP at a concentration of 10 mg/ml in 150 mM citrate-phosphate buffer at pH 6 was loaded into a custom steel cuvette with quartz windows. Raman scattering from a 785 nm laser was collected in a backscattering geometry. Samples were measured in triplicate, each replicate consisted of 10 acquisitions of 10 second exposure each. The Zetasizer Helix Analyze software (Malvern Instruments) was used to buffer subtract, normalize to the phenylalanine peak (1003 cm-1), then baseline spectra for analysis. Dynamic light scattering autocorrelation functions were measured with a 632 nm laser with light collected in a 173° angle backscattering geometry. Autocorrelation functions were fit using the method of cumulants.

[3] = system: EAE induced using PLP 139-151; experiment: In vivo efficacy study, EAE animal model; design: species or system SJL/J (H-2) mice
Protocol: In vivo efficacy of K-PLP was assessed using the EAE animal model induced in female 4-6-week old SJL/J (H-2) mice (20–25 g, Envigo, Indianapolis, IN). All protocols were approved through the University’s Institutional Animal Care and Use Committee, and all animals were housed in pathogen-free conditions. EAE induction and treatment schedule were based on methods previously described ([18]–[20]). […]. Additionally, on day 0 each mouse received a 100 μl intraperitoneal injection of pertussis toxin at 100 ng/ml. This administration of pertussis toxin was repeated on day 2. Beginning on day 7, disease severity was monitored daily through the use of a symptom scoring system as follows: 0, no clinical disease symptoms; 1, weakness or limpness of the tail; 2, weakness or partial paralysis of one or two hind limbs (paraparesis); 3, full paralysis of both hind limbs (paraplegia); 4, paraplegia plus weakness or paralysis of forelimbs; 5, moribund (euthanasia necessary). Mouse weight was also recorded daily throughout the study. In vivo treatment groups consisted of 6 mice per group. Treatments were administered in 100 μl SC injections formulated in 40 mg/ml mannitol. Injections were administered between the shoulder blades. Copaxone and K-PLP were administered at 4.5 mg/ml while 9-unit poly-lysine was administered at the molar equivalent to K-PLP injections, resulting in a concentration of 1.7 mg/ml. Treatment injections were performed on days 4, 7, and 10 following EAE induction. Mouse weights were recorded daily beginning on day 0 and clinical scores were recorded daily beginning on day 7. Statistical analysis was performed using two-way analysis of variance (ANOVA) on the clinical scores and weights, one-way ANOVA on the cumulative clinical scores, followed by Turkey comparison tests for all. Statistical significance for all analyses was set at p<0.05. All statistical analyses were performed using GraphPad Software (GraphPad Software Inc.).

[4] = cited from earlier work; for formation of visible aggregates in the presence of HA (literature): in the presence of glycosaminoglycans such as HA
From the text: GA consists of a broad population of peptides (average MW 5–9 kDa) comprising four amino acids (AKEY). Lysine is the predominant amino acid at ~34% of the molar mass, which imbues a strong cationic character (pI ~10). […] Approximately 30% of GA remained aggregated after 3 days according to in vitro subcutaneous (SC) injection simulation experiments. […] GEMSP consists of a mixture of fatty acid linked poly-lysine (PLL), antioxidants-PLL, free radical scavengers-PLL, and amino acids-PLL.

footpads of mice = experiment: In vivo migration imaging: retention at the footpad injection site; conditions: 10 μl into the footpad, cy7-labeled mixed with unlabeled compound, 20 mg/ml (PLP molar equivalent), dye 25 μM; 1-4 h; near-IR imaging; one mouse per compound
Protocol: Herein, the labeled compounds will be referred to as cy7-GA, cy7-K-PLP, cy7-PEG and cy7-PLP.
Similar imaging method as previously described was used ([15]). Three female SJL/J mice (20-25 g, Envigo, Indianapolis, IN) were used for imaging, one each for K-PLP, PLP, and GA. Unlabeled K-PLP and unlabeled GA were mixed with cy7-K-PLP and cy7-GA, respectively, to a final concentration of 20 mg/ml with the amount of dye normalized to the equivalent of 25 μM of free cyanine 7 dye. Similarly, unlabeled PLP was mixed with cy7-PLP to a concentration that is molar equivalent to 20 mg/ml of K-PLP with the amount of dye normalized to the equivalent of 25 μM of free cyanine 7 dye. Each mouse was injected with 10 μl of their respective treatment at the center of the footpad every hour for 4 h in the following order: left forelimb at the 1-h time point, right forelimb at the 2-h time point, left hindlimb at the 3-h time point, and right hindlimb at the 4-h time point for K-PLP; right forelimb at the 1-h time point, left forelimb at the 2-h time point, right hindlimb at the 3-h time point, and left hindlimb at the 4-h time point for both GA and PLP. […]

Substance	formation of visible aggregates in HA [1]	release rate compared to GA ([1]; Scissor release profile over 3 days, GA profile from ref 15)	remained in the cartridge at the end of the three-day experiment ([1]; Scissor, 20 mg/ml into 10 mg/ml HA, end of 3 days)	plateau of release into the chamber after 2 days ([1]; Scissor, 1 ml of 20 mg/ml in 40 mg/ml mannitol into 10 mg/ml HA, after 2 days, Micro BCA assay)	K-PLP released into the chamber over the first 3 h ([1]; Scissor, 1 ml of 20 mg/ml in 40 mg/ml mannitol into 10 mg/ml HA, first 3 h, Micro BCA assay)	mean size (DLS) ([2]; 10 mg/ml in 150 mM citrate-phosphate buffer pH 6, 632 nm laser, 173° backscattering, method of cumulants, triplicate)	polydispersity (DLS) ([2]; 10 mg/ml in 150 mM citrate-phosphate buffer pH 6, over the temperature ramp)	clinical score ([3]; 100 μl SC in 40 mg/ml mannitol, 4.5 mg/ml, days 4, 7 and 10, scores to day 25, 6 mice per group)	percentage of disease-free mice ([3]; 100 μl SC, days 4, 7 and 10, 6 mice per group)	weight decrease ([3]; 100 μl SC, days 4, 7 and 10, % weight change normalized to day 7, 6 mice per group)	weight loss from day 13 to day 17 (peak disease) ([3]; compared to 9-unit poly-lysine (p<0.0001) and PLP (p<0.01), two-way ANOVA)	cumulative clinical scores, day 0 to day 25 ([3]; one-way ANOVA, 6 mice per group)	formation of visible aggregates in the presence of HA (literature) [4]	fluorescence intensity at the footpads over 4 h (footpads of mice)	remained aggregated after 3 days ([4]; in vitro subcutaneous injection simulation, 3 days)	disease progression compared to the control (mannitol) ([3]; 100 μl SC, days 4, 7 and 10, Copaxone 4.5 mg/ml, 9-unit poly-lysine 1.7 mg/ml, 6 mice per group)
NH2-KKKKKKKKKKK-PEG-PEG-PEG-PEG-HSLGKWLGHPDKF-OH [K-PLP]	visible aggregates were formed immediately	released at a similar rate as GA	approximately 20%	around 80%	approximately 20%	around 2 nm	less than 0.3	lowest clinical score	highest percentage of disease-free mice	least weight decrease	no significant weight loss	significant improvement over 9-unit poly-lysine, but not PLP	–	–	–	–
poly-lysine	–	–	–	–	–	–	–	–	–	–	–	–	able to form visible aggregates	–	–	–
glatiramer acetate [GA, reference compound]	Formation of aggregates was observed immediately	–	–	–	–	–	–	–	–	–	–	–	forms large, visible aggregates	did not significantly decrease over the course of the experiment	Approximately 30%	any deviations from the control were not statistically significant; also recorded: did not significantly improve the clinical outcomes
